“And” between values parts separate entries of the source, which are not always exact repeats. Identical values can stand only once.

Test in all cases: normalised viability (% of control), CellTiter-Blue; higher = more viable cells (about 100 = DMSO control)
Conditions in all cases: incubation time: 72 h
(Resazurin is reduced to fluorescent resorufin, in cell work by metabolically active cells.)

For test [1], the system named is MDA-MB-453. How it is done:
(§1)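 DSRT, CellTiter-Blue viability, 72 h incubation. Signal is normalised to DMSO and benzethonium chloride controls. Value is the normalised response at dose 8.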

In test [2] the test system is CAL-51. As to the method: as §1
Test [3] deals with CAL-148. How it is done: as §1
Test [4] concerns DU-4475. How it is done: as §1
Test [5] relates to HDQ-P1. As to the method: as §1
The test system of test [6] is CAL-85-1. As to the method:
as §1

The subject of test [7] is MDA-MB-453. How it is done:
(§2)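 DSRT, CellTiter-Blue viability, 72 h incubation. Signal is normalised to DMSO and benzethonium chloride controls. Value is the normalised response at dose 6.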
This is another data set of the same source.

In test [8] the test system is CAL-51. How it is done: as §2
This is another data set of the same source.

The test system of test [9] is CAL-148. How it is done:
as §2
This is another data set of the same source.

Test [10] deals with DU-4475. How it is done: as §2
The source holds these as a separate data set.

Test [11] relates to HDQ-P1. As to the method: as §2
The source holds these as a separate data set.

The subject of test [12] is CAL-85-1. How it is done:
as §2
The source holds these as a separate data set.

Test [13] has as its system MDA-MB-453. How it is done: (§3)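 DSRT, CellTiter-Blue viability, 72 h incubation. Signal is normalised to DMSO and benzethonium chloride controls. Value is the normalised response at dose 7.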
This is another data set of the same source.

For test [14], the system named is CAL-51. As to the method:
as §3
The source holds these as a separate data set.

Test [15] deals with CAL-148. How it is done:
as §3
This is another data set of the same source.

In test [16] the test system is DU-4475. How it is done: as §3
This is another data set of the same source.

Test [17] deals with HDQ-P1. As to the method: as §3
This is another data set of the same source.

Test [18] deals with CAL-85-1. How it is done: as §3
The source holds these as a separate data set.

As to `NC(=O)c1cccc2cn(-c3ccc([C@@H]4CCCNC4)cc3)nc12` [MK-4827] (3000 nM), the normalised viability was 101% in the test on MDA-MB-453 [1]; 48.8% in the test with CAL-51 [2]; 73.5% with CAL-148 [3]; 58.6% with DU-4475 [4]; 91.3% in the test on HDQ-P1 [5]; 85.8% with CAL-85-1 [6].

As for `N[C@@H](Cc1ccc(N(CCCl)CCCl)cc1)C(=O)O` [Melphalan] (29.7 nM), the normalised viability worked out at 110% in the test on MDA-MB-453 [7]; 104% with CAL-51 [8]; 98.7% in the test on CAL-148 [9]; 102% in the test with DU-4475 [10]; 81.1% in the test on HDQ-P1 [11]; 88.3% with CAL-85-1 [12].

As for `N[C@@H](Cc1ccc(N(CCCl)CCCl)cc1)C(=O)O` [Melphalan] (99 nM), the normalised viability in the test on MDA-MB-453 [13] came out at 101%; in the test on CAL-51 [14], 109%; in the test with CAL-148 [15], 106%; with DU-4475 [16] it was 86.2%; in the test on HDQ-P1 [17] it was 100%; in the test with CAL-85-1 [18], 79.4%.

As for `N[C@@H](Cc1ccc(N(CCCl)CCCl)cc1)C(=O)O` [Melphalan] (297 nM), the normalised viability in the test with MDA-MB-453 [1] worked out at 110%; in the test with CAL-51 [2] it was 106%; in the test with CAL-148 [3], 100%; with DU-4475 [4] it was 88.9%; in the test with HDQ-P1 [5] it was 100%; in the test with CAL-85-1 [6] it was 97.9%.

For `Cc1c(C(=O)Nc2ccc(N3C[C@@H](C)O[C@@H](C)C3)nc2)cccc1-c1ccc(OC(F)(F)F)cc1` [NVP-LDE225] (300 nM), the normalised viability in the test on MDA-MB-453 [7] was 88.1%; with CAL-51 [8] it was 105%; in the test on CAL-148 [9], 95.2%; in the test on DU-4475 [10] it was 101%; in the test on HDQ-P1 [11], 36.5%; in the test on CAL-85-1 [12], 108%.

In the case of `Cc1c(C(=O)Nc2ccc(N3C[C@@H](C)O[C@@H](C)C3)nc2)cccc1-c1ccc(OC(F)(F)F)cc1` [NVP-LDE225] (1000 nM), the normalised viability with MDA-MB-453 [13] is 92.9%; in the test on CAL-51 [14], 99.5%; in the test with CAL-148 [15], 107%; in the test with DU-4475 [16], 118%; with HDQ-P1 [17], 90.1%; with CAL-85-1 [18], 98.8%.

Regarding `Cc1c(C(=O)Nc2ccc(N3C[C@@H](C)O[C@@H](C)C3)nc2)cccc1-c1ccc(OC(F)(F)F)cc1` [NVP-LDE225] (3000 nM), the normalised viability in the test on MDA-MB-453 [1] is 75.2%; in the test with CAL-51 [2] it was 101%; in the test on CAL-148 [3], 107%; in the test on DU-4475 [4], 121%; with HDQ-P1 [5], 84.1%; in the test on CAL-85-1 [6] it was 109%.

For `O=C(c1cc(Cc2n[nH]c(=O)c3ccccc23)ccc1F)N1CCN(C(=O)C2CC2)CC1` [Olaparib] (300 nM), the normalised viability in the test on MDA-MB-453 [7] amounted to 98%; in the test with CAL-51 [8] it was 93.2%; in the test on CAL-148 [9], 85.3%; in the test on DU-4475 [10], 83.2%; with HDQ-P1 [11] it was 73.9%; in the test on CAL-85-1 [12] it was 92.2%.

With `O=C(c1cc(Cc2n[nH]c(=O)c3ccccc23)ccc1F)N1CCN(C(=O)C2CC2)CC1` [Olaparib] (3000 nM), the normalised viability was 93% with MDA-MB-453 [1]; 68.9% in the test on CAL-51 [2]; 64.2% in the test on CAL-148 [3]; 72.4% with DU-4475 [4]; 100% in the test on HDQ-P1 [5]; 71.4% in the test with CAL-85-1 [6].

Turning to `CO[C@H](C(=O)[C@@H](O)[C@@H](C)O)[C@@H]1Cc2cc3cc(O[C@H]4C[C@@H](O[C@@H]5C[C@@H](O)[C@H](O)[C@@H](C)O5)[C@H](O)[C@@H](C)O4)c(C)c(O)c3c(O)c2C(=O)[C@H]1O[C@H]1C[C@@H](O[C@@H]2C[C@@H](O)[C@@H](O[C@@H]3C[C@](C)(O)[C@H](O)[C@@H](C)O3)[C@@H](C)O2)[C@H](O)[C@@H](C)O1` [Plicamycin] (300 nM), the normalised viability in the test with MDA-MB-453 [7] was 17.4% and 13.2%; in the test with CAL-51 [8], 18.3% and 13.9%; with CAL-148 [9], 2.94% and 7.64%; with DU-4475 [10], 0.65% and -0.39%; with HDQ-P1 [11], 32.7% and 20.9%; in the test on CAL-85-1 [12], 13% and 11.5%.

For the compound `C[C@]12C=CC(=O)C=C1CC[C@@H]1[C@@H]2C(=O)C[C@@]2(C)[C@H]1CC[C@]2(O)C(=O)CO` [Prednisone] (300 nM), the normalised viability in the test with MDA-MB-453 [7] stood at 91.8%; in the test on CAL-51 [8], 104%; in the test on CAL-148 [9] it was 102%; in the test with DU-4475 [10] it was 108%; in the test on HDQ-P1 [11], 50.2%; with CAL-85-1 [12], 102%.

Take `CO[C@H]1C[C@@H]2CC[C@@H](C)[C@@](O)(O2)C(=O)C(=O)N2CCCC[C@H]2C(=O)O[C@H]([C@H](C)C[C@@H]2CC[C@@H](O)[C@H](OC)C2)CC(=O)[C@H](C)/C=C(\C)[C@@H](O)[C@@H](OC)C(=O)[C@H](C)C[C@H](C)/C=C/C=C/C=C/1C` [Sirolimus] (30 nM): the normalised viability was 29% in the test on MDA-MB-453 [7]; 29.3% in the test on CAL-51 [8]; 46.8% in the test on CAL-148 [9]; 48.5% with DU-4475 [10]; 60.8% in the test with HDQ-P1 [11]; 56.1% in the test with CAL-85-1 [12].

`CN1CCN(c2nc(C3=C(c4c[nH]c5ccccc45)C(=O)NC3=O)c3ccccc3n2)CC1` [Sotrastaurin] (300 nM): the normalised viability with MDA-MB-453 [7] worked out at 96.2%; in the test on CAL-51 [8], 87%; in the test on CAL-148 [9], 120%; with DU-4475 [10] it was 99.9%; in the test on HDQ-P1 [11], 56.9%; in the test with CAL-85-1 [12] it was 117%.

Regarding `CC/C(=C(\c1ccccc1)c1ccc(OCCN(C)C)cc1)c1ccccc1` [Tamoxifen] (300 nM), the normalised viability in the test on MDA-MB-453 [7] turned out to be 97.8%; in the test on CAL-51 [8], 89.5%; with CAL-148 [9], 112%; in the test on DU-4475 [10] it was 113%; in the test with HDQ-P1 [11], 93.8%; in the test on CAL-85-1 [12], 106%.

As to `COc1cc2c(N3CCN(C(=O)Nc4ccc(OC(C)C)cc4)CC3)ncnc2cc1OCCCN1CCCCC1` [Tandutinib] (30 nM), the normalised viability worked out at 108% with MDA-MB-453 [7]; 106% with CAL-51 [8]; 103% in the test with CAL-148 [9]; 96.3% in the test with DU-4475 [10]; 70.4% in the test on HDQ-P1 [11]; 110% in the test on CAL-85-1 [12].

As to `C[C@@H](C(=O)O)c1ccc(-c2ccccc2)c(F)c1` [Tarenflurbil] (300 nM), the normalised viability with MDA-MB-453 [7] was found to be 104%; in the test on CAL-51 [8], 117%; with CAL-148 [9], 93.6%; in the test on DU-4475 [10], 89.8%; in the test on HDQ-P1 [11] it was 64.5%; in the test on CAL-85-1 [12] it was 101%.

`Cn1nnc2c(C(N)=O)ncn2c1=O` [Temozolomide] (300 nM): the normalised viability was 93.8% with MDA-MB-453 [7]; 88.4% in the test on CAL-51 [8]; 89.2% in the test on CAL-148 [9]; 116% with DU-4475 [10]; 72.5% in the test on HDQ-P1 [11]; 104% in the test with CAL-85-1 [12].

For the compound `CC[C@@H]1C(=O)N(C)c2cnc(Nc3ccc(C(=O)N[C@H]4CC[C@H](N5CCN(CC6CC6)CC5)CC4)cc3OC)nc2N1C(C)C` [Volasertib] (30 nM), the normalised viability with MDA-MB-453 [7] came to 31.5%; in the test with CAL-51 [8], 40.5%; in the test with CAL-148 [9], 25.4%; with DU-4475 [10], 58.8%; in the test with HDQ-P1 [11], 49.7%; in the test with CAL-85-1 [12] it was 45.9%.

The record behind these values is the supplement of paper PMC4862054.
